Among the test systems are MCF7 breast; K-562 leukemia; MDA-MB-231 breast; OVCAR-3 ovarian; OVCAR-5 ovarian; KM12 colon; U251 CNS; M14 melanoma; NCI-H522 lung; HT29 colon; A498 renal.
What all share (experiment): NCI-60 cell line screen, 48 h

Results on 12 compounds are retold here after PubChem BioAssay (NCI).

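The compound was tested at five concentrations on cells cultured in 96-well plates, with a 48-hour exposure period. TGI: total growth inhibition.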

`Nc1nc(-c2ccccc2N=NN2CCCC2)nc2ccccc12`: the TGI in the assay with MCF7 breast amounted to 55.9 µM; with K-562 leukemia it was 10.2 µM; in the assay with MDA-MB-231 breast it was 3.63 µM; with OVCAR-3 ovarian, 4.35 µM; in the assay on OVCAR-5 ovarian, 4.66 µM; in the assay on KM12 colon it was 7.36 µM. Further, the TGI came to 8.91 µM in the assay with U251 CNS; 12.5 µM with M14 melanoma; 16.5 µM in the assay with NCI-H522 lung; 10.8 µM in the assay with HT29 colon; 20.2 µM with A498 renal.
On to `CC1OC2=N[C@@H]1C(=O)N[C@@H](C(C)C)C1=N[C@H](C(=O)N[C@@H](C(C)C)C3=N[C@H](C(=O)N[C@@H](C(C)C)C4=N[C@H](C(=O)N[C@H]2C(C)C)C(C)O4)C(C)O3)C(C)O1` (some centres not stated), for which the TGI in the assay on MCF7 breast, in the assay on K-562 leukemia, in the assay with MDA-MB-231 breast, in the assay on OVCAR-3 ovarian, with OVCAR-5 ovarian and in the assay on KM12 colon was above 10 µM throughout. The TGI in the assay on U251 CNS, with M14 melanoma, in the assay on NCI-H522 lung, with HT29 colon and in the assay on A498 renal was above 10 µM in each case.
For `C=C(CCC(C)C1CCC2C3=C(C(=O)CC21C)C1(C)CCC(=O)[C@@H](C)C1CC3=O)C(C)C(=O)O` (some centres not stated), the TGI is above 100 µM with MCF7 breast; 35.2 µM in the assay on K-562 leukemia; above 100 µM with MDA-MB-231 breast; above 100 µM in the assay with OVCAR-3 ovarian; above 100 µM with OVCAR-5 ovarian; above 100 µM in the assay with KM12 colon. Also, the TGI in the assay on U251 CNS, in the assay on M14 melanoma, with NCI-H522 lung, with HT29 colon and in the assay with A498 renal was above 100 µM in each case.
On to `CC(=O)OCC1OC(n2c3c(c(-c4cccc5ccccc45)c(C#N)c2=S)CCCC3)C(OC(C)=O)C(OC(C)=O)C1OC(C)=O` (configuration not stated), for which the TGI with MCF7 breast, in the assay on K-562 leukemia, with MDA-MB-231 breast, in the assay on OVCAR-3 ovarian, with OVCAR-5 ovarian and in the assay on KM12 colon was above 100 µM throughout. The TGI with U251 CNS, in the assay with M14 melanoma, in the assay with NCI-H522 lung, with HT29 colon and in the assay with A498 renal was above 100 µM each time.
On to `Cc1cc(C)c(P2C(=C(O[Si](C(C)C)(C(C)C)C(C)C)C(C)(C)C)C2(c2ccccc2)c2ccccc2)c(C)c1` (configuration not stated), for which the TGI in the assay on MCF7 breast, in the assay on K-562 leukemia, in the assay on MDA-MB-231 breast, with OVCAR-3 ovarian, in the assay on OVCAR-5 ovarian and in the assay with KM12 colon was above 100 µM in each case. In addition, the TGI with U251 CNS, in the assay on M14 melanoma, in the assay on NCI-H522 lung, in the assay on HT29 colon and in the assay on A498 renal was above 100 µM throughout.
For the compound `CC[N+](C)(CC)CCC(O)(c1ccccc1)c1ccccc1`, the TGI with MCF7 breast, in the assay on K-562 leukemia, with MDA-MB-231 breast, with OVCAR-3 ovarian, in the assay on OVCAR-5 ovarian and in the assay with KM12 colon was above 100 µM in each case. The TGI with U251 CNS, in the assay on M14 melanoma, in the assay with NCI-H522 lung, in the assay on HT29 colon and in the assay with A498 renal was above 100 µM throughout.
In the case of `CC(C)=CCC[C@@H](C)C1=C(Nc2ccccc2Cl)C(O)=C(C)C(=O)C1=O`, the TGI in the assay with MCF7 breast was above 100 µM; in the assay on K-562 leukemia, above 64.1 µM; with MDA-MB-231 breast, above 100 µM; in the assay with OVCAR-3 ovarian it was 16.5 µM; in the assay with OVCAR-5 ovarian, above 52 µM; in the assay on KM12 colon it was 17.7 µM. Moreover, the TGI with U251 CNS worked out at 38 µM; in the assay with M14 melanoma it was 33.5 µM; in the assay with NCI-H522 lung it was 12.2 µM; in the assay on HT29 colon, 13.6 µM; in the assay on A498 renal it was 27.4 µM.
`CC(=O)O[C@@H]1C[C@@]23C[C@@]24CC[C@H](OC2OCC(O)C(O)C2O)C(C)(C)[C@@H]4CC=C3[C@]2(C)C[C@@H]3OC4(C[C@@H](C)[C@@H]3[C@@]12C)OC(O)[C@@]1(C)O[C@@H]41` (some centres not stated): the TGI is above 100 µM in the assay with MCF7 breast; above 100 µM in the assay with K-562 leukemia; 44 µM with MDA-MB-231 breast; 34.5 µM in the assay with OVCAR-3 ovarian; above 100 µM in the assay with OVCAR-5 ovarian; above 100 µM with KM12 colon. Moreover, the TGI is above 100 µM in the assay on U251 CNS; above 100 µM in the assay on M14 melanoma; 89.4 µM in the assay with NCI-H522 lung; above 100 µM in the assay on HT29 colon; above 100 µM in the assay on A498 renal.
With `c1ccc(CCNCc2ccco2)nc1`, the TGI in the assay on MCF7 breast was above 100 µM; in the assay on K-562 leukemia it was above 33.6 µM; in the assay on MDA-MB-231 breast it was above 100 µM; in the assay with OVCAR-3 ovarian, above 100 µM; in the assay on OVCAR-5 ovarian it was above 100 µM; in the assay with KM12 colon, above 100 µM. Further, the TGI in the assay with U251 CNS, in the assay on M14 melanoma, in the assay on NCI-H522 lung, with HT29 colon and in the assay on A498 renal was above 100 µM in each case.
Turning to `COC1OC(Cc2nnc(C)o2)C(OCc2ccccc2)C(OCc2ccccc2)C1OCc1ccccc1` (configuration not stated), the TGI in the assay on MCF7 breast was 49.7 µM; in the assay with K-562 leukemia, 98.5 µM; in the assay on MDA-MB-231 breast, above 100 µM; with OVCAR-3 ovarian it was 60.6 µM; in the assay with OVCAR-5 ovarian it was above 100 µM; in the assay on KM12 colon, 42.3 µM. Besides, the TGI is above 100 µM in the assay with U251 CNS; above 100 µM with M14 melanoma; 52.7 µM with NCI-H522 lung; 63.3 µM in the assay on HT29 colon; above 100 µM in the assay with A498 renal.
Regarding `N=C1N(S(=O)(=O)c2ccccc2)[C@@H](Cc2ccccc2)[C@H](c2ccccc2)C1(c1ccccc1)c1ccccc1`, the TGI in the assay on MCF7 breast, in the assay on K-562 leukemia, with MDA-MB-231 breast, in the assay on OVCAR-3 ovarian, in the assay with OVCAR-5 ovarian and in the assay on KM12 colon was above 100 µM throughout. Also, the TGI in the assay with U251 CNS, with M14 melanoma, with NCI-H522 lung, in the assay with HT29 colon and in the assay with A498 renal was above 100 µM throughout.
On to `CCCCc1cc2c(C)cc(=O)oc2c(O)c1O`, for which the TGI in the assay with MCF7 breast was 45.7 µM; with K-562 leukemia, 73.5 µM; in the assay on MDA-MB-231 breast, 28 µM; in the assay with OVCAR-3 ovarian, 82 µM; in the assay with OVCAR-5 ovarian, above 100 µM; in the assay on KM12 colon, 64.3 µM. Further, the TGI in the assay on U251 CNS turned out to be 56.1 µM; in the assay with M14 melanoma, 85 µM; in the assay on NCI-H522 lung it was 49 µM; with HT29 colon, 77 µM; in the assay with A498 renal it was 72 µM.
